According to ChEMBL document CHEMBL3856250, “Discovery of 6-Fluoro-5-(R)-(3-(S)-(8-fluoro-1-methyl-2,4-dioxo-1,2-dihydroquinazolin-3(4H)-yl)-2-methylphenyl)-2-(S)-(2-hydroxypropan-2-yl)-2,3,4,9-tetrahydro-1H-carbazole-8-carboxamide (BMS-986142): A Reversible Inhibitor of Bruton's Tyrosine Kinase (BTK) Conformationally Constrained by Two …” (J Med Chem, 2016):
Converted amounts (≈) assume the structure as drawn.

What was measured:
[1] = Clearance in dog at 1 mg/kg, iv; format: ADME, organism-based, Canis lupus familiaris; conditions: in vivo
[2] = Cmax in rat at 5 mg/kg, po; format: ADME, organism-based; parameters: dose 5 mg/kg, route oral; conditions: in vivo
[3] = Half life in dog at 1 mg/kg, iv; format: ADME, organism-based, Canis lupus familiaris; conditions: in vivo
[4] = Cmax in mouse at 10 mg/kg, iv or po; format: ADME, organism-based; conditions: in vivo
[5] = target: Cytochrome P450 2C19 (Homo sapiens, UniProt P33261); assay: Inhibition of CYP2C19 (unknown origin); format: ADME
[6] = Oral bioavailability in dog at 2 mg/kg; format: ADME, organism-based, Canis lupus familiaris; conditions: in vivo
[7] = target: T1, Tyrosine-protein kinase BTK (Homo sapiens, UniProt Q06187); assay: Inhibition of BTK in human peripheral B cells assessed as suppression of CD40/CD40L-stimulated CD69 surface expression; format: cell-based
[8] = Drug uptake in rat brain relative to plasma concentration; format: ADME
[9] = Permeability of the compound at pH 5.5 by PAMPA assay; format: ADME; conditions: read-out: permeability
[10] = Clearance in mouse at 3 mg/kg, iv; format: ADME, organism-based; conditions: in vivo
[11] = Volume of distribution at steady state in dog at 1 mg/kg, iv; format: ADME, organism-based, Canis lupus familiaris; conditions: in vivo, read-out: Vdss
[12] = MRT in mouse at 3 mg/kg, iv; format: ADME, organism-based; conditions: in vivo
[13] = target: Cytochrome P450 2D6 (Homo sapiens, UniProt P10635); assay: Inhibition of CYP2D6 (unknown origin); format: ADME
[14] = target: Cytochrome P450 2C9 (Homo sapiens, UniProt P11712); assay: Inhibition of CYP2C9 (unknown origin); format: ADME
[15] = target: T1, Tyrosine-protein kinase BTK; assay: Inhibition of BTK in human whole blood assessed as suppression of BCR/anti-IgM/IgG-stimulated CD69 surface expression after 18 hrs with agitation by FITC-staining based FACS analysis; format: tissue-based
[16] = Solubility of the compound in fed state stimulated intestinal fluid; format: ADME; conditions: fed state simulated intestinal fluid (FeSSIF)
[17] = Tmax in cynomolgus monkey at 4 mg/kg, po; format: ADME, organism-based, Macaca fascicularis; conditions: in vivo
[18] = Clearance in rat at 2 mg/kg, iv; format: ADME, organism-based; conditions: in vivo
[19] = Cmax in mouse at 6 mg/kg, po; format: ADME, organism-based; parameters: dose 6 mg/kg, route oral; conditions: in vivo
[20] = Protein binding in monkey plasma; format: ADME, cell-free, Macaca mulatta; conditions: rhesus monkey, read-out: PPB (converted)
[21] = target: Cytochrome P450 3A4 (Homo sapiens, UniProt P08684); assay: Inhibition of CYP3A4 (unknown origin); format: ADME
[22] = Solubility of the compound in fasted state stimulated intestinal fluid; format: ADME; conditions: fasted state simulated intestinal fluid (FaSSIF)
[23] = Cmax in cynomolgus monkey at 4 mg/kg, po; format: ADME, organism-based, Macaca fascicularis; parameters: dose 4 mg/kg, route oral; conditions: in vivo
[24] = Protein binding in dog plasma; format: ADME, cell-free, Canis lupus familiaris; conditions: read-out: PPB (converted)
[25] = Clearance in cynomolgus monkey at 2 mg/kg, iv; format: ADME, organism-based, Macaca fascicularis; conditions: in vivo
[26] = target: T2, Cytochrome P450 2B6 (Homo sapiens, UniProt P20813); assay: Inhibition of CYP2B6 (unknown origin); format: ADME
T2 sequence (P20813 whole entry): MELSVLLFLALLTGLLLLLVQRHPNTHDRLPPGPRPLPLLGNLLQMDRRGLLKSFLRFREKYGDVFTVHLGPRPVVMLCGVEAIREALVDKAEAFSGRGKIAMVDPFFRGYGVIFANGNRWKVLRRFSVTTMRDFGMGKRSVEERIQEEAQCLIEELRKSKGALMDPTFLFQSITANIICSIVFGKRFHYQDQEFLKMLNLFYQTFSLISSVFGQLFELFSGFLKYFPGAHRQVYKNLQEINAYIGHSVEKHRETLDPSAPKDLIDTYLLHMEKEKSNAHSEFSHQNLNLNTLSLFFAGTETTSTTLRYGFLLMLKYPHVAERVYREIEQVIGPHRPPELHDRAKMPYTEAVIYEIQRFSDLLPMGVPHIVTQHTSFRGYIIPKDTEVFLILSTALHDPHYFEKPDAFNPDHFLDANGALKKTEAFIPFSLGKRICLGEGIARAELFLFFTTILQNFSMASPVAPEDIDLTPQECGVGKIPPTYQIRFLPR

[27] = Protein binding in rat plasma; format: ADME, cell-free; conditions: read-out: PPB (converted)
[28] = target: Voltage-gated inwardly rectifying potassium channel KCNH2 (Homo sapiens, UniProt Q12809); assay: Inhibition of human ERG by patch clamp assay
[29] = system: Mus musculus; assay: Antiathritis activity in anticollagen antibody-induced arthritis BALB/c mouse model assessed as reduction in LPS-induced paw swelling at 20 mg/kg, po qd followed by LPS addition on day 3 measured after 11 days relative to control; format: functional; parameters: scale not given: the % may be the effect or the level left
[30] = Drug metabolism in po dosed rat plasma assessed as isomerization of atropisomeric center after 24 hrs; format: ADME, organism-based; conditions: read-out: Drug metabolism
[31] = target: T1, Tyrosine-protein kinase BTK; assay: Inhibition of BTK in human whole blood basophils assessed as suppression of FceRI/anti-IgE-stimulated CD63 surface expression; format: tissue-based
[32] = target: T1, Tyrosine-protein kinase BTK; assay: Inhibition of BTK in human Ramos-B cells assessed as suppression of BCR/anti-IgM-stimulated Ca2+ flux after 1 hr incubation in dark by FLIPR1 assay
[33] = target: Proto-oncogene tyrosine-protein kinase Src (Homo sapiens, UniProt P12931); assay: Inhibition of SRC (unknown origin)
[34] = system: Mus musculus; assay: Antiathritis activity in anticollagen antibody-induced arthritis BALB/c mouse model assessed as reduction in LPS-induced paw swelling at 5 mg/kg, po qd followed by LPS addition on day 3 measured after 11 days relative to control; format: functional; parameters: scale not given: the % may be the effect or the level left
[35] = Volume of distribution at steady state in cynomolgus monkey at 2 mg/kg, iv; format: ADME, organism-based, Macaca fascicularis; conditions: in vivo, read-out: Vdss
[36] = MRT in dog at 1 mg/kg, iv; format: ADME, organism-based, Canis lupus familiaris; conditions: in vivo
[37] = Oral bioavailability in cynomolgus monkey at 4 mg/kg; format: ADME, organism-based, Macaca fascicularis; conditions: in vivo

T1 sequence (Q06187 whole entry): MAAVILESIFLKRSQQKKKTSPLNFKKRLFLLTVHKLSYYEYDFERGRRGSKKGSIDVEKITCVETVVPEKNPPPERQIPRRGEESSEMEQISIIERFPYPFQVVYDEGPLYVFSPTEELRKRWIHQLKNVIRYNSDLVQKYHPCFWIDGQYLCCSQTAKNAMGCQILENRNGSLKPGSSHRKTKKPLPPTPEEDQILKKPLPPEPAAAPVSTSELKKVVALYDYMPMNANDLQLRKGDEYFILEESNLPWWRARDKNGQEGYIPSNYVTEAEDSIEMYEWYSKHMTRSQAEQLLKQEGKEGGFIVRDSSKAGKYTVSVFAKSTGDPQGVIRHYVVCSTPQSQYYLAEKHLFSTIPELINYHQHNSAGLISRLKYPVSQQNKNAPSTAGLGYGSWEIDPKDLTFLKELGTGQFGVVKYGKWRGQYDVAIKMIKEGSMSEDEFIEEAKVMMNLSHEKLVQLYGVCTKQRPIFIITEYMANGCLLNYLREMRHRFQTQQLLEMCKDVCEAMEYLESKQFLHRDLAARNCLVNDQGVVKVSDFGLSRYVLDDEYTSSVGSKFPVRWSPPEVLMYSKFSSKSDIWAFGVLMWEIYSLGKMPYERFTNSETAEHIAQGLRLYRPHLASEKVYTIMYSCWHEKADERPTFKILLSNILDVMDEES
Cytochrome P450 3A4, sequence (P08684 whole entry): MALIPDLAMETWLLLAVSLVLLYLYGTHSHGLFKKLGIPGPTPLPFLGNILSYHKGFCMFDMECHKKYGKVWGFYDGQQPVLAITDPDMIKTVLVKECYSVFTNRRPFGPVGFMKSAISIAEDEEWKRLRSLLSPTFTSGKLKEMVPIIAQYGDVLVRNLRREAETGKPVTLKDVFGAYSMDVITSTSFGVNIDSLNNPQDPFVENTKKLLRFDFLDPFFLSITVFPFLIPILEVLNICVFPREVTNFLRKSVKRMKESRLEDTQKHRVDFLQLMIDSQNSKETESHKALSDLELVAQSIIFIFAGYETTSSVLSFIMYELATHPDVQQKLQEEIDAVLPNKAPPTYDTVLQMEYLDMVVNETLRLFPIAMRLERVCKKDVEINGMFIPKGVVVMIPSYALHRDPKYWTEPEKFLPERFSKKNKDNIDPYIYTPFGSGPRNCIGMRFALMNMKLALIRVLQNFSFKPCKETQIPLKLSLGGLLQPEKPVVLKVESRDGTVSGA
Proto-oncogene tyrosine-protein kinase Src, sequence (P12931 2-536 limits assumed): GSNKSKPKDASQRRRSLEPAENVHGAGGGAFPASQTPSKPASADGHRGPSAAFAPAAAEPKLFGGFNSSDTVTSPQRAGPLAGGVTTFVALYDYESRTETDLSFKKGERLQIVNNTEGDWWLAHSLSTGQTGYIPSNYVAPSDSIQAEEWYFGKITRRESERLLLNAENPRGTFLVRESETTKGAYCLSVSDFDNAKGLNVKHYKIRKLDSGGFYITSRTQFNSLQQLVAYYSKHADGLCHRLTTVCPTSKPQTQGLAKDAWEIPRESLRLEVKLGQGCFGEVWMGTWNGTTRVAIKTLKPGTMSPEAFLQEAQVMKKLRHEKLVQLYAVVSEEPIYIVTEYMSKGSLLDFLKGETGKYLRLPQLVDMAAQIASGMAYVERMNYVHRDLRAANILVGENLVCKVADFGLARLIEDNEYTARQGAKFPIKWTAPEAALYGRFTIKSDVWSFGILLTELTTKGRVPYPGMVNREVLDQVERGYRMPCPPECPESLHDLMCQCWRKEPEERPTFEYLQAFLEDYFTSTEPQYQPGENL
Cytochrome P450 2C9, sequence (P11712 whole entry): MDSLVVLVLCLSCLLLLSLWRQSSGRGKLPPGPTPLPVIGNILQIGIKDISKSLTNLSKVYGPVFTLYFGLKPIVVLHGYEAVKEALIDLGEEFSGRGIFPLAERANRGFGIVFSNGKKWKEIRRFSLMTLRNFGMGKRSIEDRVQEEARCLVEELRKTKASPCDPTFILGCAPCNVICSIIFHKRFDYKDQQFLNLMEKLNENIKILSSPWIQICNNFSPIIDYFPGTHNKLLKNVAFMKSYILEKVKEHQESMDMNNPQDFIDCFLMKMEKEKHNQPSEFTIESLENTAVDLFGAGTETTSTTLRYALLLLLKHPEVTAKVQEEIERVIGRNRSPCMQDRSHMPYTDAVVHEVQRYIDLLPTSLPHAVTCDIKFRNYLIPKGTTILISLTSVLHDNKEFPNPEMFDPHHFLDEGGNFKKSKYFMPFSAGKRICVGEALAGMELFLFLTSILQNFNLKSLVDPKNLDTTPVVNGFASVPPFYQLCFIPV
Cytochrome P450 2C19, sequence (P33261 whole entry): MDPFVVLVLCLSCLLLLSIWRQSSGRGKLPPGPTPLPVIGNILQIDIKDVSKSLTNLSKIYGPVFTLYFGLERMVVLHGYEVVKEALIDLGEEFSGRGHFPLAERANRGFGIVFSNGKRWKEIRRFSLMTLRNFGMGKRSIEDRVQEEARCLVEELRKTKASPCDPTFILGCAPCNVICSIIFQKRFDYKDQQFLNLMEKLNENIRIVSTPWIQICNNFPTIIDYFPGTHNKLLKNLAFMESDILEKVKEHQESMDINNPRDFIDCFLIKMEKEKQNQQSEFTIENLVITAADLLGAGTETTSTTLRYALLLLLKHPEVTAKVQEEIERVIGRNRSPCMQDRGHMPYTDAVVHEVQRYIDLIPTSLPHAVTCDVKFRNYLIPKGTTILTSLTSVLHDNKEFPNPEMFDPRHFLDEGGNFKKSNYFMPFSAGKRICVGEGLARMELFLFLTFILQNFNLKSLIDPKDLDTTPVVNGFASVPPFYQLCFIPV
Voltage-gated inwardly rectifying potassium channel KCNH2, sequence (Q12809 whole entry): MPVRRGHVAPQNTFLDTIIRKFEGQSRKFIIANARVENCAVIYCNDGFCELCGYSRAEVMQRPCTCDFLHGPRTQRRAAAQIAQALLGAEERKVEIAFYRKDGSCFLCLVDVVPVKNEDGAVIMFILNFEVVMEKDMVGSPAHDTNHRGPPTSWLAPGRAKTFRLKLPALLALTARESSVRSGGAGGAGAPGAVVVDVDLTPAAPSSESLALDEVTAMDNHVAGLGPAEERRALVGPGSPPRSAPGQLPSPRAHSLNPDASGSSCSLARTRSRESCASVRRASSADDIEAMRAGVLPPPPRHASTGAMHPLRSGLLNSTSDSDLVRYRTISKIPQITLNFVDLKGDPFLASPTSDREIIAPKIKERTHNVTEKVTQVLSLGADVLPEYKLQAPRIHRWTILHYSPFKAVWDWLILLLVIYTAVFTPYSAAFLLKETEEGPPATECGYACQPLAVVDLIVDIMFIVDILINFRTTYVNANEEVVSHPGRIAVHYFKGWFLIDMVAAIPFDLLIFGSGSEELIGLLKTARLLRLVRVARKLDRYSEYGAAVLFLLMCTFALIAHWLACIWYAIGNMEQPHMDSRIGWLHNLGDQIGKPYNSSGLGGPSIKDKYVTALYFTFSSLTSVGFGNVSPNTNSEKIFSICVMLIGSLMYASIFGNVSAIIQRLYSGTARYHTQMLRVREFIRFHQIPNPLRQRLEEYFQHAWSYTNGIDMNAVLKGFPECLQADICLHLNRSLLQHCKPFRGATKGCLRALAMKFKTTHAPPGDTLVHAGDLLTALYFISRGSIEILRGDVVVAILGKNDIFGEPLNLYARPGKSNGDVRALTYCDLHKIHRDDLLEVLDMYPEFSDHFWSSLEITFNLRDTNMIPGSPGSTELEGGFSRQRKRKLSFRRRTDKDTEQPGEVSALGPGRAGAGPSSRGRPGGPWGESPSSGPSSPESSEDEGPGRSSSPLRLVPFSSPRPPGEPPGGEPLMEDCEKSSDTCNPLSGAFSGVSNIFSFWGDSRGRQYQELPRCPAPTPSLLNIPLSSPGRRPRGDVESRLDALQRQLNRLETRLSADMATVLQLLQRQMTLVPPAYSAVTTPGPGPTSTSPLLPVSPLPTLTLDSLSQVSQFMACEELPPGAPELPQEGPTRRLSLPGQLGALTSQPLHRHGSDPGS
Cytochrome P450 2D6, sequence (P10635 whole entry): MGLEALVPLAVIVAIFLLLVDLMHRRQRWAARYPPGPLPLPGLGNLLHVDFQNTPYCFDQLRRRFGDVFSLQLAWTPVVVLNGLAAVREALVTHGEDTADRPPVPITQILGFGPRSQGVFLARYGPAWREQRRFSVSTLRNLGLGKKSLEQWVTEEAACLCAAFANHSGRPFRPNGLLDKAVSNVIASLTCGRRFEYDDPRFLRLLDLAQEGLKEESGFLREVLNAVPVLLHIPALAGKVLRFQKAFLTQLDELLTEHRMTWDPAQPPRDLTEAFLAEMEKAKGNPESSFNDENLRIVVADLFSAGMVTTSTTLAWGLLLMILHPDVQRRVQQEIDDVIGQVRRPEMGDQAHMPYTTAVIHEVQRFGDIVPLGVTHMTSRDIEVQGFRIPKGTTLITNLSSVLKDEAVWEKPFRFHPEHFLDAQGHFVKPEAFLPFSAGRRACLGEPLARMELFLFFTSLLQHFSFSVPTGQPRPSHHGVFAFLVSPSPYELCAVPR

Cc1c(-c2c(F)cc(C(N)=O)c3[nH]c4c(c23)CC[C@H](C(C)(C)O)C4)cccc1-n1c(=O)c2cccc(F)c2n(C)c1=O (atropisomer R) [BMS-986142]
clearance [1]: 3.2 mL/min/kg
Cmax [2]: 2.3 µM
half-life [3]: 13 h
Cmax [4]: 4.9 µM
IC50 [5]: 32.2 µM
bioavailability [6]: 100%
IC50 [7]: > 10 µM
Drug uptake [8]: < 5%
Papp [9]: 67.3 ×10⁻⁶ cm/s
clearance [10]: 4.1 mL/min/kg
Vd [11]: 3.4 L/kg
MRT [12]: 4.8 h
IC50 [13]: > 40 µM
IC50 [14]: 17.1 µM
IC50 [15]: 0.09 µM
solubility [16]: 368 µg/mL (≈ 643 µM)
Tmax [17]: 3.7 h
clearance [18]: 4.2 mL/min/kg
Cmax [19]: 4.9 µM
fraction unbound [20]: 0.012
IC50 [21]: 8.5 µM
solubility [22]: 18 µg/mL (≈ 31.4 µM)
Cmax [23]: 0.85 µM
fraction unbound [24]: 0.009
clearance [25]: 10 mL/min/kg
IC50 [26]: > 40 µM
fraction unbound [27]: 0.017
IC50 [28]: 5.5 µM
Activity [29]: 100%
metabolised at 24 h [30]: < 2%
IC50 [31]: 0.089 µM
IC50 [32]: 0.009 µM
IC50 [33]: 1.1 µM
Activity [34]: 72%
Vd [35]: 3 L/kg
MRT [36]: 18 h
bioavailability [37]: 33%
